Test results reported in patent publication US4057635A, “Carbamates of ergolines and therapeutic compositions therewith” (Simes Societa Italiana Medicinali e Sintetici S.p.A., priority 1973, dated 1977).

Tests used:
[1] = tested on: dogs; assay: peripheral vasoconstrictive hypertensive action in vivo, in dogs
[2] = tested on: alpha-adrenergic receptors; assay: stimulation of the alpha-adrenergic receptors; conditions: on the basis of the tests carried out
[3] = tested on: smooth muscles of the vessels; assay: antiserotoninic effects in vivo at the level of the smooth muscles of the vessels; conditions: e.v.
[4] = tested on: central nervous system; assay: antiserotoninic effects in vivo at the level of the central nervous system; conditions: s.c.
[5] = therapeutic index; format: in vivo
Source text: The active concentrations are comprised between 2 and 20 micrograms per ml. […] The range of the active dosages is comprised between 20 and 100 micrograms/kilogram e.v. In vitro, the compound XXXVIII releases the muscles of the aorta of rabbits at concentrations of 50-100 micrograms/ml. The therapeutic index is favourable for an indication of the product as an antispastic of the gastro-intestinal system and the biliary tract.
(§1) The active dosages are comprised between 5 and 20 micrograms/ml in vitro, and from 50 to 500 micrograms/kilogram e.v. The acute toxicity of the compound LI has proven to be extremely low and consequently the therapeutic index is favorable for its use as a spasmolytic of the smooth muscles of the vessels and organs other than vessels.

[6] = tested on: central nervous system; assay: stimulation of the central nervous system; conditions: in vivo
[7] = tested on: bowel and vessel muscles; assay: spasmolytic properties on the bowel and vessel muscles in vitro
Source text: as §1

[8] = tested on: bowel and vessel muscles; assay: spasmolytic properties on the bowel and vessel muscles in vivo
Source text: as §1

[9] = acute toxicity; conditions: in vivo
Source text: as §1

[10] = tested on: ileum; assay: spasmolytic activity on isolated ileum of guinea pigs
Source text: as §1
In addition, the compound IV acts on the trachea of guinea pigs as a releasing agent at the concentration of 0.5-1 microgram/ml. On the ileum of the same animals, as a spasmolytic at a concentration of 50-100 micrograms/ml and on the uterus and stomach of rats as an antiserotoninic at the concentration of 0.05-0.1 micrograms/ml. […] The compound on the basis of the pharmacological and toxicological properties which have been detected can be employed for the treatment of headaches.

[11] = tested on: deferent vessel; assay: spasmolytic activity on isolated deferent vessel of rats
Source text: as §1

[12] = tested on: muscles of the peripheral vessels; assay: spasmolytic effects in vivo on the muscles of the peripheral vessels; conditions: e.v.
Source text: as §1

## CN(C)C(=O)OC[C@@H]1C=C2c3cccc4[nH]cc(c34)C[C@H]2N(C)C1 [compound IV]
[1]; dogs and cats, e.v.
  dose dependence of the vasoconstrictive hypertensive effect: proportional to the dosage
[1]; in vivo
  peripheral vasoconstrictive hypertensive action: strong peripheral vasoconstrictive hypertensive action
[2]
  action on the alpha-adrenergic receptors: stimulant of the alpha-adrenergic receptors
[3]
  active dosages (antiserotoninic, smooth muscles of the vessels): 5-10 micrograms/kilogram
[4]
  active dosages (antiserotoninic, central nervous system): 0.5-1 milligrams/kilograms

## CC(Cc1ccccc1)NC(=O)OC[C@@H]1C[C@@H]2c3cccc4[nH]cc(c34)C[C@H]2N(C)C1 (stereo partly drawn) [compound LI, D-6-methyl-8β-(α-methylphenethylaminocarbonyloxymethyl)-ergoline]
[5]; as spasmolytic of the smooth muscles of the vessels and organs other than vessels
  therapeutic index: favorable
[6]
  stimulating effects on the central nervous system: lost the stimulating effects on the central nervous system
[7]
  spasmolytic properties on the bowel and vessel muscles: retained
[8]
  spasmolytic properties on the bowel and vessel muscles: retained
[9]
  acute toxicity: extremely low

## CC(Cc1ccccc1)NC(=O)OC[C@@H]1C=C2c3cccc4[nH]cc(c34)C[C@H]2N(C)C1 (stereo partly drawn) [compound XXV, D-6-methyl-8β-(α-methylphenethylaminocarbonyloxymethyl)-9,10-didehydroergoline]
[6]
  stimulating effects on the central nervous system: interesting actions which stimulated the central nervous system
[10]
  spasmolytic activity: considerable spasmolytic activity
[11]
  spasmolytic activity: considerable spasmolytic activity
[12]
  dosages (spasmolytic effects on the muscles of the peripheral vessels): 20-200 micrograms/kilogram

## CN1C[C@H](COC(=O)N2CCCCCC2)C[C@@H]2c3cccc4[nH]cc(c34)C[C@H]21 [compound XXXVIII, D-6-methyl-8β-(perhydroazepinylcarbonyloxymethyl)-ergoline]
[5]; as antispastic of the gastro-intestinal system and the biliary tract
  therapeutic index: favourable
